According to PubChem BioAssay (NCI):
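Test compounds were applied to cells in 96-well plates for 48 hours at 5 doses. The concentration for 50% growth inhibition is given as GI50. TGI: total growth inhibition.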

How the values were obtained:
Test in all cases: DTP human tumour cell line panel, 48 h
[1] = test system: CCRF-CEM leukemia
[2] = test system: NCI-H460 lung
[3] = test system: MDA-MB-435
[4] = test system: DU-145 prostate
[5] = test system: SF-268 CNS
[6] = test system: SK-MEL-28 melanoma
[7] = test system: HOP-62 NSCLC
[8] = test system: A498 renal
[9] = test system: HCT-116 colon
[10] = test system: UACC-62 melanoma
[11] = test system: SK-MEL-5 melanoma
[12] = test system: TK-10 renal
[13] = test system: SN12C renal
[14] = test system: SF-539 CNS
[15] = test system: U251 CNS
[16] = test system: NCI/ADR-RES ovarian
[17] = test system: SW-620 colon
[18] = test system: NCI-H226 lung
[19] = test system: 786-0 renal
[20] = test system: T-47D breast
[21] = test system: M14 melanoma
[22] = test system: MOLT-4 leukemia
[23] = test system: KM12 colon
[24] = test system: SK-OV-3 ovarian
[25] = test system: EKVX NSCLC
[26] = test system: MDA-MB-231 breast
[27] = test system: RPMI-8226 leukemia
[28] = test system: HCT-15 colon
[29] = test system: SNB-19 CNS
[30] = test system: CAKI-1 renal
[31] = test system: ACHN renal
[32] = test system: PC-3 prostate
[33] = test system: HT29 colon
[34] = test system: OVCAR-5 ovarian
[35] = test system: NCI-H23 lung
[36] = test system: LOX IMVI melanoma
[37] = test system: BT-549 breast
[38] = test system: UO-31 renal
[39] = test system: OVCAR-3 ovarian
[40] = test system: OVCAR-4 ovarian
[41] = test system: HL-60(TB) leukemia
[42] = test system: SF-295 CNS
[43] = test system: SNB-75 CNS
[44] = test system: K-562 leukemia

SMILES: Cc1sc2nc(-c3ccncc3)c(/C=N/N=C(N)N)n2c1C
- GI50 [1]: 63 µM
- TGI [1]: > 100 µM
- GI50 [2]: 27.3 µM
- TGI [2]: > 100 µM
- GI50 [3]: 26.2 µM
- TGI [3]: > 100 µM
- GI50 [4]: 50.8 µM
- TGI [4]: > 100 µM
- GI50 [5]: 25.7 µM
- TGI [5]: 90.1 µM
- GI50 [6]: 68.9 µM
- TGI [6]: > 100 µM
- GI50 [7]: 33.9 µM
- TGI [7]: > 100 µM
- GI50 [8]: 25.8 µM
- TGI [8]: > 100 µM
- GI50 [9]: 27.7 µM
- TGI [9]: 81.8 µM
- GI50 [10]: 17.3 µM
- TGI [10]: 50.3 µM
- GI50 [11]: 38.3 µM
- TGI [11]: > 100 µM
- GI50 [12]: > 100 µM
- TGI [12]: > 100 µM
- GI50 [13]: 16.9 µM
- TGI [13]: 51.6 µM
- GI50 [14]: 51.9 µM
- TGI [14]: > 100 µM
- GI50 [15]: 30.5 µM
- TGI [15]: > 100 µM
- GI50 [16]: > 100 µM
- TGI [16]: > 100 µM
- GI50 [17]: 34.7 µM
- TGI [17]: > 100 µM
- GI50 [18]: 26.8 µM
- TGI [18]: 84.6 µM
- GI50 [19]: 32.2 µM
- TGI [19]: 92.1 µM
- GI50 [20]: 30.7 µM
- TGI [20]: > 100 µM
- GI50 [21]: 60.2 µM
- TGI [21]: > 100 µM
- GI50 [22]: 18.2 µM
- TGI [22]: > 100 µM
- GI50 [23]: 14.7 µM
- TGI [23]: 37.2 µM
- GI50 [24]: 62.2 µM
- TGI [24]: > 100 µM
- GI50 [25]: 75.9 µM
- TGI [25]: > 100 µM
- GI50 [26]: 25.3 µM
- TGI [26]: 61.5 µM
- GI50 [27]: 28 µM
- TGI [27]: 78.2 µM
- GI50 [28]: > 100 µM
- TGI [28]: > 100 µM
- GI50 [29]: 36.3 µM
- TGI [29]: > 100 µM
- GI50 [30]: 40.8 µM
- TGI [30]: > 100 µM
- GI50 [31]: 49.7 µM
- TGI [31]: > 100 µM
- GI50 [32]: 58.4 µM
- TGI [32]: > 100 µM
- GI50 [33]: 40 µM
- TGI [33]: > 100 µM
- GI50 [34]: 74.6 µM
- TGI [34]: > 100 µM
- GI50 [35]: 48.4 µM
- TGI [35]: > 100 µM
- GI50 [36]: 28.2 µM
- TGI [36]: 78 µM
- GI50 [37]: 73.5 µM
- TGI [37]: > 100 µM
- GI50 [38]: 54.1 µM
- TGI [38]: > 100 µM
- GI50 [39]: 26 µM
- TGI [39]: 89.7 µM
- GI50 [40]: 67.3 µM
- TGI [40]: > 100 µM
- GI50 [41]: 21.7 µM
- TGI [41]: > 100 µM
- GI50 [42]: 24.9 µM
- TGI [42]: 72.7 µM
- GI50 [43]: 89.8 µM
- TGI [43]: > 100 µM
- GI50 [44]: 34.7 µM
- TGI [44]: > 100 µM
